Reference: US5326780A, “Imidazole derivatives having anti-HIV activity” (priority 1992, dated 1994)
In brackets after ≈: the same amount, converted by molar mass. Like-named read-outs stand apart in the source and are kept apart here.

Tests used:
Assay type in all cases: cell-based
HIV (HTLV-IIIB strain) = assay: Infection inhibitory test: anti-HIV activity, MT-4 cells infected with HIV, MTT; conditions: Human immunodeficiency virus 1, IIIB, MT4, 120 h
Experimental: Anti-HIV activity and cytotoxicity are tested in the following manners.
(§1) (1) A human T cell MOLT-4 clone 8, a strain continuously infected with HIV (HTLV-IIIB strain), was incubated in RPMI-1640 medium containing 10% bovine fetus serum and the supernatant was isolated by filtration. After the determination of virus titer, the supernatant was stored at -80° C. A compound to be tested was diluted with the same medium to a given concentration and poured into 96-well microtiter plates by 100 μl/well. To the well is added 50 μl (2.5×10^4 cells) MT-4 cell suspensions, followed by the addition of 50 μl [600 pfu (plaque forming unit)] HIV-containing supernatant previously diluted with the same medium.
(§2) (2) After 5-day-incubation at 37° C. in a carbon dioxide incubator, 30 μl MTT {3-(4,5-diemthylthiazol-2-yl)-2,5-diphenyltetrazolium bromide), 5 mg/ml in PBS} was added to each well, and the incubation was continued for another 1 hour, during which surviving cells reduce MTT to precipitate folmazan.
(§3) The resultant folmazan was eluted by replacing 150 μl supernatant of a culture in each well by 150 μl solution comprising 10% triton X - 100 and isopropanol containing 0.4 v/v % HCl and shaking by means of a plate mixer. The resultant folmazan was assayed at 0D 540 nm, and the result was evaluated by comparison with that obtained in a control test.
IC50 is defined as a concentration of the compound (I) that gives a 50% inhibition against vital cytotoxicity.

[1] = Cytotoxicity, MT-4 cells without virus, MTT; conditions: human
Experimental: as §1, §2, §3
(§4) Cytotoxicity of a compound (I) was evaluated in a similar manner as described in 1 above except that 50 μl of the same medium is added to each well in place of the HIV-containing supernatant (viral solurtion).
(§5) CC50 is defiend as a concentration of the compound (I) that gives 50% cytotoxicity.

MT-4 cell = assay: Cytotoxicity, MT-4 cells without virus, MTT; conditions: 50% cytotoxicity; MT-4 cells without virus, 5-day incubation, MTT
Experimental: as §1, §2, §3, §4, §5

[2] = 50% inhibition of viral cytotoxicity, MT-4 cells, 5-day incubation at 37 °C, MTT, read-out: IC50

Compound	IC50 (HIV (HTLV-IIIB strain); [2])	CC50 at 120 h ([1]; mt-4 cells)	CC50 at 120 h ([1]; 50% cytotoxicity, MT-4 cells without virus, 5-day incubation, MTT, read-out: CC50)	IC50 (HIV (HTLV-IIIB strain))	CC50 (MT-4 cell)
c1ccc(COCn2cncc2Sc2ccccc2)cc1 [Compound I-5, 1-benzyloxymethyl-5-phenylthioimidazoe nitrate]	0.13 to 0.25 µg/mL	12.5 to 25 µg/mL	–	–	–
CCOCn1c(C)nc(C(C)C)c1Cc1cccnc1 [Compound I-58]	0.5 µg/mL (≈ 1.83 µM)	> 100 µg/mL	–	–	–
Cc1nc(C(C)C)c(Cc2cc(F)cc(F)c2)n1COCc1ccccc1 [Compound I-69]	0.003 µg/mL (≈ 0.0081 µM)	6.25 to 12.5 µg/mL (≈ 16.9 to 33.7 µM)	–	–	–
Cc1nc(Cc2cc(F)cc(F)c2)c(C(C)C)n1COCc1ccccc1 [Compound I-92]	0.25 µg/mL (≈ 0.675 µM)	6.25 to 12.5 µg/mL (≈ 16.9 to 33.7 µM)	–	–	–
Cc1cc(C)cc(Cc2c(C(C)C)nc(C)n2COCc2ccccc2)c1 [Compound I-50]	0.016 µg/mL (≈ 0.0441 µM)	6.25 to 12.5 µg/mL (≈ 17.2 to 34.5 µM)	–	–	–
CCc1ncn(COCc2ccccc2)c1Sc1ccccc1 [Compound I-4, 1-benzyloxymethyl-4-ethyl-5-phenylthioimidazole]	0.13 to 0.25 µg/mL (≈ 0.401 to 0.771 µM)	12.5 to 25 µg/mL (≈ 38.5 to 77.1 µM)	–	–	–
CCc1nc(C)n(COCc2ccccc2)c1Sc1ccccc1 [Compound I-1, 1-benzyloxymethyl-4-ethyl-2-methyl-5-phenylthioimidazole]	0.03 to 0.06 µg/mL (≈ 0.0886 to 0.177 µM)	–	–	–	–
CCc1nc(C)n(COCCO)c1Sc1cc(C)cc(C)c1 [Compound I-29, 5-(3,5-Dimethylphenylthio)-4-ethyl-1-[(2-hydroxyethoxy)-methyl]-2-methylimidazole]	0.13 to 0.25 µg/mL (≈ 0.406 to 0.78 µM)	25 to 50 µg/mL (≈ 78 to 156 µM)	–	–	–
Cc1cc(C)cc(Sc2c(C(C)C)nc(C)n2COCc2ccccc2)c1 [Compound I-16]	0.016 to 0.031 µg/mL (≈ 0.042 to 0.0815 µM)	–	–	–	–
CCCc1ncn(COCc2ccccc2)c1Sc1ccccc1 [Compound I-9]	–	12.5 to 25 µg/mL (≈ 36.9 to 73.9 µM)	–	–	–
CCOCn1c(C)nc(C(C)C)c1Sc1ccccc1 [Compound I-18]	0.016 µg/mL (≈ 0.0551 µM)	25 to 50 µg/mL (≈ 86.1 to 172 µM)	–	–	–
CCCc1nc(Br)n(COCc2ccccc2)c1Sc1ccccc1 [Compound I-13]	–	12.5 to 25 µg/mL (≈ 29.9 to 59.9 µM)	–	–	–
CC(C)=CCN1Cc2cc(Cl)cc3[nH]c(=S)n(c23)C[C@@H]1C [TIBO (R-82913), reference compound]	0.13 to 0.25 µg/mL (≈ 0.404 to 0.777 µM)	–	12.5 to 25 µg/mL (≈ 38.8 to 77.7 µM)	–	–
CCOCn1c(C)nc(Cc2cc(Cl)cc(Cl)c2)c1C(C)C [Compound I-90]	0.5 to 1 µg/mL (≈ 1.47 to 2.93 µM)	1 to 10 µg/mL (≈ 2.93 to 29.3 µM)	–	–	–
CCc1nc(Br)n(COCc2ccccc2)c1Sc1ccccc1 [Compound I-12]	0.06 to 0.13 µg/mL (≈ 0.149 to 0.322 µM)	12.5 to 25 µg/mL (≈ 31 to 62 µM)	–	–	–
CCOCn1c(C)nc(CC)c1Sc1cc(C)cc(C)c1 [Compound I-15]	0.063 to 0.12 µg/mL (≈ 0.207 to 0.394 µM)	10 to 20 µg/mL (≈ 32.8 to 65.7 µM)	–	–	–
CCOCn1c(C)nc(C(C)C)c1Cc1cc(Cl)cc(Cl)c1 [Compound I-67]	0.005 µg/mL (≈ 0.0147 µM)	6.25 to 12.5 µg/mL (≈ 18.3 to 36.6 µM)	–	–	–
CCc1nc(C)n(COCc2ccccc2)c1Sc1cc(C)cc(C)c1 [Compound I-14]	0.016 to 0.032 µg/mL (≈ 0.0437 to 0.0873 µM)	10 to 20 µg/mL (≈ 27.3 to 54.6 µM)	–	–	–
Cc1cn([C@H]2C[C@H](N=[N+]=[N-])[C@@H](CO)O2)c(=O)[nH]c1=O [AZT, azidodeoxythymidine, reference compound]	–	–	–	0.005 to 0.01 µg/mL (≈ 0.0187 to 0.0374 µM)	25 µg/mL (≈ 93.5 µM)
Cc1nc(C(C)C)c(Sc2ccccc2)n1COCc1ccccc1 [Compound I-17]	0.016 µg/mL (≈ 0.0454 µM)	–	–	–	–
Cc1nc(Cc2cc(Cl)cc(Cl)c2)c(C(C)C)n1COCc1ccccc1 [Compound I-91]	0.5 to 1 µg/mL (≈ 1.24 to 2.48 µM)	10 to 100 µg/mL (≈ 24.8 to 248 µM)	–	–	–
CCOCn1c(C)nc(Cc2cc(F)cc(F)c2)c1C(C)C [Compound I-93]	0.06 µg/mL (≈ 0.195 µM)	12.5 to 25 µg/mL (≈ 40.5 to 81.1 µM)	–	–	–
Cc1nc(C(C)C)c(Cc2ccccc2)n1COCc1ccccc1 [Compound I-42, 5-Benzyl-1-benzyloxymethyl-4-isopropyl-2-methylimidazole]	0.016 µg/mL (≈ 0.0478 µM)	3.1 to 6.25 µg/mL (≈ 9.27 to 18.7 µM)	–	–	–
